From patent publication US20070184549A1, “Method of inducing fenestrae” (priority 2004, published 2007)

Assays:
actin filaments = details: barbed, fast growing end of actin filaments; cited from earlier work
[1] = tested on: actin microfilaments of bEND5 cells; assay: Actin microfilament staining with Alexa546-conjugated phalloidin, time-course in bEND5 cells; format: cell-based, mouse; details: for earliest dramatic changes in the organization of actin, time of treatment / time until which cortical actin persisted / was dismantled / time within which stress fibers were reduced: 10 μM Cytochalasin B or 2.5 μM Latrunculin A
Description: Stress fibers were reduced within the first 20 minutes, whereas cortical actin persisted until about 60 minutes of treatment. At 120 minutes, individual actin bundles were spread around the cytoplasm. (Bar=8 μm)
FIG. 11 show images of bEND5 cells that were treated with 2.5 μM Latrunculin A for different periods of time, and actin microfilaments were stained with Alexa546-conjugated phalloidin. Stress fibers were reduced within the first 20 minutes, while complete disruption occurs at 60-120 minutes. Individual actin foci, small filaments, and actin-rich filopodia were present after 180 minutes of treatment. (Bar=8 μm)
(§1) Microfilaments were disrupted in all cell types upon treatment. (Bar=8 μm)
In parallel to the SEM analysis, bEND5 cells subjected to cytochalasin B and latrunculin A time-courses were stained for the presence of actin microfilaments using phalloidin (FIGS. 10 and 11). Untreated cells contained an extensive network of stress fibers spanning their cytoplasm. Dramatic changes in the organization of actin were however observed as early as after 10 minutes of treatment with either agent. […] At 120 minutes, the disassembled actin was concentrated in aggregates throughout the cytoplasm, while large areas remained actin-deficient. In cells treated with latrunculin A (FIG. 11) the disruption of stress fibers was faster, and the cortical cytoskeleton was dismantled within the first 20 minutes. Overall cells had more and larger actin-depleted areas, and the remainder of actin appeared irregularly arranged in short filaments around the cytoplasm or in structures resembling filopodia.

Py4.1 cells = assay: Fenestrae induction in Py4.1 cells, wholemount TEM; format: cell-based, mouse; details: for fenestrae formation: 2.5 μM Latrunculin A, 3 hours, wholemount TEM
Description: (§2) FIG. 9 is a graph regarding fenestrae induction in different endothelial cell types. The potential of different endothelial cell lines to form fenestrae under the optimal parameters of induction was assessed using wholemount TEM. bEND5, Py4.1, SVEC, and HUVEC cells were treated for 3 hours with vehicle (V) or 2.5 μM Latrunculin A (Lat), and the number of fenestrae was estimated as a fraction of the plasma membrane area occupied by sieve plates. Data points represent the average of two experiments, with 36 images captured per sample in each experiment. Error bars represent standard deviation between the two experiments.
A panel of endothelial cell subtypes was assessed for their fenestrae-forming potentials. Three mouse endothelial lines (bEND5, Py4.1, SVEC) and one human primary endothelial line (HUVEC) were cultured on gelatin-coated grids, treated with latrunculin A for 3 hours, and examined by wholemount TEM (FIG. 8). bEND5 and Py4.1 cells are brain endothelomas and ear/tail endotheliomas respectively, both originating from hemangiomas of Polyoma virus—infected mice. SVECs are lymph node endothelial cells infected with SV40 virus. HUVECs were chosen because of their widespread use and primary cell nature. […] The response of bEND5 and Py4.1 cells differed both in magnitude and in relation to the respective untreated controls. bEND5 cells harbored greater numbers of fenestrae overall, but contained some background fenestrae in the un-induced state.

bEND5 cells = assay: Fenestrae induction in bEND5 cells, quantified by stereology on SEM or wholemount TEM images; details: for induction of fenestrae compared to the untreated control: cytochalasin B (10 nM) or Latrunculin A (2.5 nM) alone; for induction of fenestrae compared to the untreated control / maximum number of fenestrae: SEM; for maximum number of fenestrae: cytochalasin B at 2 hours, latrunculin A after 3 hours; for time of treatment at maximum number of fenestrae: single agent, SEM time-course; for fenestrae formation: 2.5 μM Latrunculin A, 3 hours, wholemount TEM
Source text: Images were printed, and sieve plates were marked (solid line). A grid (20 mm×20 mm) was overlaid over each image and the number of grid points falling within the areas delineated or on any cellular structure were counted. Fenestrae abundance was estimated based on the following calculation: Plasma membrane coverage (or fraction of the plasma membrane occupied by sieve plates)=grid points falling on sieve plates/grid points falling on any cell area. To express abundance in terms of the number of fenestrae per area of plasma membrane, the density of fenestrae within sieve plates was calculated and multiplied by the frequency of sieve plates as follows: number of fenestrae per square μm=density of fenestrae×plasma membrane coverage.
A quantitative assessment of fenestrae numbers was achieved by applying Stereology to SEM or wholemount TEM images (FIG. 3). Quantitative assessment comprised overlaying a lattice on top of an image and counting points falling on fenestrated and on non-fenestrated areas of the plasma membrane. Amounts of fenestrae were routinely expressed as fractions of plasma membrane area that was fenestrated (point counts falling on fenestrae divided by point counts falling on any plasma membrane area). To compare these numbers with measurements in previous in vivo or in vitro studies, the density of individual fenestrae within sieve plates was estimated, which when multiplied by the fraction of plasma membrane coverage equaled the number of fenestrae per μm^2 of plasma membrane.
Coverslips and dishes were coated with 1% gelatin (Sigma) solution in PBS for 30 minutes at room temperature. Endothelial cells were seeded overnight at a density equivalent to 1.5×10^6 cells per 100 mm dish. Cultures were induced with Cytochalasin B (Sigma) at 10 μM for 2 hours, with Latrunculin A (Molecular Probes) at 2.5 μM for 3 hours, or with a combination of recombinant mouse 75 ng/ml VEGF (R&D systems) for 6-72 hours and 10 μM Cytochalasin B for 2 hours. Cells were processed for biochemistry or morphology immediately after the end of the induction.

HUVEC cells = assay: Fenestrae induction in HUVEC cells, wholemount TEM; format: cell-based, human; details: 2.5 μM Latrunculin A, 3 hours
Description: as §2
(§3) A panel of endothelial cell subtypes was assessed for their fenestrae-forming potentials. Three mouse endothelial lines (bEND5, Py4.1, SVEC) and one human primary endothelial line (HUVEC) were cultured on gelatin-coated grids, treated with latrunculin A for 3 hours, and examined by wholemount TEM (FIG. 8). bEND5 and Py4.1 cells are brain endothelomas and ear/tail endotheliomas respectively, both originating from hemangiomas of Polyoma virus—infected mice. SVECs are lymph node endothelial cells infected with SV40 virus. HUVECs were chosen because of their widespread use and primary cell nature. […]

[2] = tested on: actin cytoskeleton of SVEC cells; assay: Actin cytoskeleton staining with phalloidin in SVEC cells; format: cell-based, mouse; details: 2.5 μM Latrunculin A, 3 hours
Source text: as §1
(§4) The actin cytoskeleton of all four cell types was stained with phalloidin to study the differential induction of endothelial cell subtypes by latrunculin A (FIG. 12). […] Observation of bEND5 and Py4.1 cells highlighted a difference in their actin cytoskeleton in the steady state (FIGS. 12A and 12C). Py4.1 cells had greater amounts of cortical actin. This could account for their decreased susceptibility to fenestrae formation compared to bEND5 cells, a discrepancy particularly apparent during induction with cytochalasin B.

[3] = tested on: actin cytoskeleton of HUVEC cells; assay: Actin cytoskeleton staining with phalloidin in HUVEC cells; format: cell-based, human; details: 2.5 μM Latrunculin A, 3 hours
Source text: as §1, §4

[4] = tested on: actin cytoskeleton of Py4.1 cells; assay: Actin cytoskeleton staining with phalloidin in Py4.1 cells; format: cell-based, mouse; details: 2.5 μM Latrunculin A, 3 hours
Source text: as §1, §4

SVEC cells = assay: Fenestrae induction in SVEC cells, wholemount TEM; format: cell-based, mouse; details: 2.5 μM Latrunculin A, 3 hours
Description: as §2, §3

actin monomers = details: 1:1 complexes with actin monomers; cited from earlier work
[5] = tested on: primary liver endothelial cells; details: cited from earlier work
[6] = tested on: normally non-fenestrated anatomical sites; details: topical application or intradermal injection; cited from earlier work

C=C1[C@@H](C)[C@H]2[C@H](Cc3ccccc3)NC(=O)[C@]23OC(=O)/C=C/[C@H](O)CCC[C@@H](C)C/C=C/[C@H]3[C@@H]1O [cytochalasin B]
Kd (actin filaments): 10 to 100 nM
earliest dramatic changes in the organization of actin, time of treatment [1]: 10 min
time until which cortical actin persisted / was dismantled [1]: about 60 minutes
time within which stress fibers were reduced [1]: ≤ 20 min
response of Py4.1 cells to cytochalasin B (fenestrae formation) (Py4.1 cells): responsive
induction of fenestrae compared to the untreated control (bEND5 cells): ~100 fold
maximum number of fenestrae (bEND5 cells): 3.5 fenestrae per μm^2
time of treatment at maximum number of fenestrae (bEND5 cells): 2 h
change in the number of fenestrae at 3 hours of treatment (bEND5 cells; versus the maximum at 2 hours): slight decrease

C/C1=C/C(=O)O[C@@H]2C[C@@H](CC[C@H](C)/C=C\C=C\CC1)O[C@@](O)([C@@H]1CSC(=O)N1)C2 [latrunculin A]
fenestrae formation (HUVEC cells): only very few
fenestrae formation (HUVEC cells; listed as Latrunculin A): rare fenestrae
state of the actin cytoskeleton after treatment [2]: completely disrupted
time of complete disruption of actin microfilaments ([1]; 2.5 μM Latrunculin A): 60 to 120 min
state of the actin cytoskeleton after treatment ([1]; 2.5 μM Latrunculin A, 3 hours): completely disrupted
earliest dramatic changes in the organization of actin, time of treatment [1]: 10 min
time until which cortical actin persisted / was dismantled [1]: ≤ 20 min
time within which stress fibers were reduced [1]: ≤ 20 min
fenestrae formation (Py4.1 cells): susceptible to fenestrae formation
fenestrae formation (Py4.1 cells; listed as Latrunculin A): Abundant fenestrae
state of the actin cytoskeleton after treatment [3]: completely disrupted
state of the actin cytoskeleton after treatment [4]: completely disrupted
fenestrae formation (SVEC cells): no indication of fenestrae
fenestrae formation (SVEC cells; listed as Latrunculin A): No fenestrae
Kd (actin monomers): ~100 nM
fenestrae formation (bEND5 cells): susceptible to fenestrae formation
fenestrae formation (bEND5 cells; listed as Latrunculin A): Abundant fenestrae
induction of fenestrae compared to the untreated control (bEND5 cells): ~100 fold
maximum number of fenestrae (bEND5 cells): up to 5.3 fenestrae per μm^2
maximum number of fenestrae (bEND5 cells; listed as Latrunculin A): 5.3 fenestrae per μm^2
potency in inducing fenestrae, comparison of the two agents (bEND5 cells; even when used at lower concentrations): more potent in inducing fenestrae than cytochalasin B
time of treatment at maximum number of fenestrae (bEND5 cells): 3 h
viability of the cells (bEND5 cells; treatments extended over 3 hours): reduced considerably

CO[C@H]1C[C@H](CC[C@H](C)[C@H](O)[C@H](C)[C@H]2OC(=O)/C=C/C(C)=C/C[C@H](O)C[C@@H]3C=CC[C@@H](C[C@H](OC)[C@@H](C)[C@@H](O)C[C@@H](O)[C@H](C)[C@@H]([C@@H](C)[C@@H](O)[C@@H](C)CC[C@H]4C[C@H](OC)C[C@H](C)O4)OC(=O)/C=C/C(C)=C/C[C@H](O)C[C@@H]4C=CC[C@@H](C[C@H](OC)[C@@H](C)[C@@H](O)C[C@@H](O)[C@@H]2C)O4)O3)O[C@@H](C)C1 [swinholide A]
induction of fenestrae over untreated control [5]: less than 3 fold
fenestrae levels ([5]; untreated control contained over 3 fenestrae per μm^2): up to 9.1 per μm^2

VEGF
time within which fenestrations are induced [6]: ≤ 10 min
fenestrae induction, cells treated only with VEGF (bEND5 cells; Cytochalasin B omitted from the induction cocktail): minimal induction over background
